Reference: US8968784B2, “Method for preparing hydro/organo gelators from disaccharide sugars by biocatalysis and their use in enzyme-triggered drug delivery” (Research Foundation of the City University of New York, priority 2006, dated 2015)
≈ marks a conversion by molar mass, not a printed value.

Tests used:
[1] = Solubilization (encapsulation) of curcumin in hydrogel; type: physicochemical; conditions: 0.5 wt % hydrogel of derivative 3, aqueous with cosolvent or surfactant or cyclodextrin
Experimental: (§1) The release of curcumin into the solution in the presence of enzyme was monitored by measuring the curcumin UV-absorption spectrum. The absorption spectrum recorded in aqueous gel solution was compared with the curcumin spectra recorded in methanol. […] To test this hypothesis, water was added to the preformed gel and left for 12 hrs. The UV-absorption of the supernatant was recorded. […] XXVII. Cyclodextrin complexation: solubility, chemical and photochemical stability. Int. J. Pharm. 244, 127-135 (2002).

[2] = target: T1, hydrolase enzyme (Lipolase 100L, Type EX) (Thermomyces lanuginosus, UniProt O59952); assay: Enzyme-triggered gel degradation and curcumin release from hydrogel, monitored by UV absorption; conditions: for curcumin release: room temperature
T1 construct: purchased Lipolase 100L, Type EX
T1 sequence (O59952 23-291): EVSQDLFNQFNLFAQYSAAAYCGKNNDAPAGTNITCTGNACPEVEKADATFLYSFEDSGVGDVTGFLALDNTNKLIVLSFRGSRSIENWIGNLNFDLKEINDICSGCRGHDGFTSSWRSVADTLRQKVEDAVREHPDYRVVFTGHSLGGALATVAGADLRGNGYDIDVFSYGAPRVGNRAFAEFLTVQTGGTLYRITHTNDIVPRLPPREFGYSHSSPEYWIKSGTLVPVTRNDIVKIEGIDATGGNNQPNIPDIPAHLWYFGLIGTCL
Experimental: Solubilization of hydrophobic drugs and developing suitable drug delivery systems is a challenging task in drug discovery research.^18 A conceptual approach of single-step enzyme-triggered drug delivery at physiological conditions was performed where a hydrophobic drug molecule was encapsulated—solubilized without chemical modification—in a hydrogel and subsequent release of the drug by breaking the gel by using hydrolase enzyme (Lipolase 100L, Type EX). […] Drug release was monitored by absorbance spectra of the drug. Control of the drug release rate was achieved by manipulating the enzyme concentration and/or temperature. The by-products formed after the gel degradation were characterized and the cleavage site of the gelator by enzyme was determined. Gel degradation occurred due to the cleavage of the ester bond in the gelator by the hydrolase enzyme. ^18Miyata, T., Uragami, T. & Nakamae, K. Biomolecule-sensitive hydrogel. Adv. Drug Delivery Rev. 54, 79-98 (2002).
as §1
First, 0.5 mL of lipase—Lipolase 100L, Type EX, lipase units 100 KLU/g—was added to the preformed gel and kept at 37° C.—far lower than gel melting temperature. […] This was confirmed by spectroscopic experiments. Aliquots were collected after addition of an enzyme to the hydrogel after 10 min and 12 hrs and absorbance spectrum were recorded.
To find out the role of the enzyme on hydrogel degradation, similar experiments were carried out by adding only water without an enzyme. As expected, the curcumin-encapsulated gel was still intact after incubating for a few days at 37° C. There was no visual change in the gel volume and in the added solution. […] To this, 0.5 mL of lipolase was added and incubated at 37° C.
To obtain control on the rate of release, the role of enzyme concentration and temperature on gel degradation or controlled drug release was investigated. In a first set of experiments, the temperature was changed while keeping enzyme concentration constant. After addition of the enzyme to the preformed gel, the vial was kept at room temperature for two days, and as explained previously, curcumin release was monitored by absorption spectra.
In a second set of experiments, the enzyme concentration was changed while keeping the temperature constant. […] At room temperature, even after several days, there was no release. Then the vial was placed at 37° C. in incubation and took 300 min to start the drug release, which eventually took 4,320 min to release completely. In addition to this, a similar low enzyme concentrated vial was directly incubated at 45° C.
It is important to characterize the products/compounds formed after gel degradation. […] Upon gel degradation, a white fluffy solid was produced, which is not soluble in water, and thus settled down in the vial. The solid was isolated and characterized by ^1H-NMR, and it matched with the NMR of pure stearic acid. See FIG. 12, which is a comparison of the ^1H-NMR spectra of commercially available stearic acid and the white fluffy solid obtained after gel degradation, which was filtered, freeze-dried, and NMR recorded in Chloroform.

[3] = Gelation ability in water and organic solvents (inverted tube, visual); type: physicochemical; conditions: for gel formation: highly polar solvents like water, methanol, and non-polar solvents like nonane, benzene, toluene
Experimental: Typically, a gelator (0.01-2 mg) in a required solvent (0.1-1 mL) was heated until the solid was completely dissolved. The resulting solution was slowly allowed to cool to room temperature and gelation was visually observed. […] All gels obtained were thermally reversible. Above their gelation temperature, the gels dissolved in water but could be returned to their original gel state upon cooling.
Typically, the gelator (0.01-2 mg) and required solvent (0.1-1 mL) were placed into a 2 mL scintillation vial, which was then sealed with a screw cap. The vial was heated and shook until the solid was completely dissolved. The solution was set aside and allowed to cool to room temperature. Gelation was considered to have occurred when no gravitational flow in the inverted tube was observed.

## COc1cc(/C=C/C(=O)CC(=O)/C=C/c2ccc(O)c(OC)c2)ccc1O [curcumin]
[1]
  solubility: 1000 µM (≈ 368 µg/mL)
[2]; lipase 100 KLU/g, 37° C.
  time to complete curcumin release: ≤ 720 min
  time to start of curcumin release: 120 min
[2]; lipase 100 KLU/g, 45° C.
  time to complete curcumin release: 270 min
  time to start of curcumin release: ≤ 30 min
[2]; lipase 100 KLU/g, two days
  curcumin release: no release
[2]; lipolase 10 KLU/g, 37° C.
  time to complete curcumin release: 4,320 min
  time to start of curcumin release: 300 min
[2]; lipolase 10 KLU/g, 45° C.
  time to complete curcumin release: 2,880 min
  time to start of curcumin release: 180 min
[2]; lipolase 10 KLU/g, several days
  curcumin release: no release
[2]; water added to preformed gel of derivative 3, left 12 hrs, no enzyme
  curcumin in supernatant (UV absorption): Absence of any absorbance peak

## Amygdalin Octadecanoate [derivative 3]
[3]
  gel formation: formed gels
[3]; in benzene
  Minimum gelation concentration (MGC): 0.2 wt %
[3]; in water
  Minimum gelation concentration (MGC): 0.05 wt %
[3]; ten solvents tested (water, polar and nonpolar organic solvents)
  number of solvents gelled: all ten solvents
[2]; hydrogel of derivative 3 without curcumin, 0.5 mL lipolase, 37° C., after 12 hrs
  gel degradation: degraded completely
[2]; products after gel degradation: amygdalin, stearic acid
  site of gelator cleavage by enzyme (TLC, 1H-NMR of products): cleaving the ester bond

## Amygdalin Tetradecanoate [derivative 2]
[3]
  gel formation: formed gels
